Laboratory results from patent US6413734B1, “Method for judging effectiveness of drug having protease inhibitory activity” (Fuji Photo Film Co., LTD, priority 1999, dated 2002).

Key:
[1] = tested on: Protease activity of breast cancer specimens; test: Protease activity measurement of frozen breast cancer slices on gelatin thin membranes containing a matrix metalloproteinase inhibitor; format: biochemical, human; settings: 20 breast cancer specimens; inhibitor contained in gelatin thin membrane; 37° C., 16 hours
Protocol: A breast cancer specimen, which was extracted by surgical operation and frozen, was sliced at −25° C. into slices having a thickness of 4 μm by using a cryostat, and adhered to a gelatin thin membrane disclosed in WO97/32035. The thickness of gelatin was 7 μm. This gelatin membrane was incubated at 37° C. for 16 hours under 100% of relative humidity, and then dried in air. A solution obtained by mixing a solution in which Ponceau 3R was dissolved at a concentration of 0.8% in 6% trichloroacetic acid aqueous solution and ethanol at a volume ratio of 3:7 was used as a staining solution. The membrane was immersed in the solution at room temperature for 4 minutes for staining. After the membrane was washed with water for 10 minutes, the membrane was then immersed in a Mayer's hematoxylin solution for 2 minutes for nuclear staining, and further washed with water for 10 minutes and dried in air. After the drying, a Cover Aid Film (Sakura Seiki Co., Ltd.) was adhered to the membrane using xylene to enclose the breast cancer slice. The film was held on a plastic mount and observed under an optical microscope. […]
Protease activity of breast cancer specimens, which were extracted by surgical operation and then frozen, was measured in the same manner as Example 1 using gelatin thin membranes containing a matrix metalloproteinase inhibitor (1,10-phenanthroline) disclosed in WO97/32035. […]

[2] = tested on: protease activity of breast cancer specimen; test: Gelatin digestion by breast cancer specimen collected by paracentesis and suction, pretreated with TIMP-1 and TIMP-2, on gelatin thin membrane; format: cell-based, human; settings: one breast cancer specimen suspended in buffer with 10 μg/ml of TIMP-1 and TIMP-2 together; 37° C., 16 hours
Protocol: Abreast cancer specimen collected by paracentesis and suction was suspended in a phosphate buffer containing 0.5% of polyvinylpyrrolidone, and adhered to a gelatin thin membrane disclosed in WO97/32035 by using a cytospin apparatus of Shandon Co., Ltd. at a speed of 400 rpm. The membrane thickness of gelatin was 7 μm. The gelatin membrane was incubated at 37° C. for 16 hours under 100% of relative humidity, and then dried in air. A solution in which Ponceau 3R was dissolved at a concentration of 0.8% in 6% trichloroacetic acid aqueous solution was used as a staining solution. The membrane was immersed in the solution at room temperature for 20 seconds for staining. […]
A breast cancer specimen collected by paracentesis and suction was suspended in a phosphate buffer containing 0.5% of polyvinylpyrrolidone and 10 μg/ml of TIMP-1 (tissue inhibitor of metalloproteinase-1) and TIMP-2, and adhered to a gelatin thin membrane disclosed in WO97/32035 by using a cytospin apparatus of Shandon Co., Ltd. at a speed of 400 rpm. […] When traces of digestion were detected in the same manner except for the treatments with TIMP-1 and TIMP-2 as a control, presence of distinct traces of digestion was observed.

Molecule	Protease activity (traces of digestion on gelatin thin membrane) [1]	Gelatin digestion on sites where the cancer cells were present [2]
c1cnc2c(c1)ccc1cccnc12 [1,10-phenanthroline]	suppressed in all specimens	
TIMP-1: tissue inhibitor of metalloproteinase-1		not observed
